Results: a melting point compilation (Tetko et al.; mined from patent text by program, amines drawn as free bases though some values may be those of a salt)

SMILES	melting point [°C]
Cc1cc2cc(CN3CCCC3)cnc2cc1NC(=O)c1ccc(-c2ccc(C(F)(F)F)cc2)cc1	216 to 219
CC1C(=O)N(c2ccc(Cc3ccccc3)cc2)C(=S)N1c1ccccc1 (stereo unspecified)	123 to 125
Cc1c(C(=O)O)cnn1-c1nc(-c2ccc(C(F)(F)F)cc2)cs1	273 to 274
CS(=O)(=O)OCCN(CCCl)c1ccc([N+](=O)[O-])c(C(=O)NCCCO)c1[N+](=O)[O-]	104 to 109
COCc1nc(C(C)(C)C)c[nH]1	65 to 66
NS(=O)(=O)c1ccc(NC(=O)CNC2CCCCC2)c(Cl)c1	213 to 215
Clc1ccc(Nc2cncc(-n3cc4ccccc4n3)n2)cc1	249 to 252
CCOc1cc(N)c(Cl)cc1C(=O)NC[C@H]1CN(CC2CCN(C(=O)N3CCC3)CC2)CCO1	166 to 168
O=C(O)COc1ccc(-c2c(Cl)c(CN3C(=O)CCC3=O)nc3sc4c(c23)CCS(=O)C4)cc1 (stereo unspecified)	205 to 206
ClCCCOc1ccc(-c2ccc(OCCCCl)cc2)cc1	201
Nc1c(C(=O)CCC(=O)O)cccc1C(=O)c1ccccc1	161 to 162
O=C(O)CCCCCCCc1nc(-c2ccccc2)c(-c2ccccc2)o1	82 to 83
COc1cc2c(N3CCc4ccc(Cl)cc43)ncnc2c(OC)c1OC	139 to 143
O=C(O)c1ccc2cc(-c3ccc(OCCCO)c(C45CC6CC(CC(C6)C4)C5)c3)ccc2c1	277 to 279
CCOc1nn(Cc2ccnc(OCc3nc(-c4ccco4)oc3C)c2)cc1CCC(=O)O	138 to 139
CCOC(=O)CC(=O)c1cccc(-n2ccnn2)c1	72 to 74
CCc1ccc2c(c1)C(Cl)Cc1ccc(F)cc1S2 (stereo unspecified)	68 to 70
NC1=Nc2ccccc2Cn2cccc21	179 to 181
N#Cc1nc(-c2cnn(-c3c(Cl)cc(C(F)(F)F)cc3Cl)c2Br)[nH]c1C#N	167 to 170
CC(=O)NS(=O)(=O)c1ccc(C2=C(c3ccc(F)c(Cl)c3)CCC2)cc1	127 to 129
CC(=NNC(=O)c1ccc([N+](=O)[O-])cc1)c1ccncc1	251
Nc1nc2ccccc2c2c1ncn2CCNC(=O)CCc1ccccc1	254 to 256
COC(=O)CC[C@H](NC(=O)c1cc(CCC2CNc3nc(N)nc(O)c3C2)c[nH]1)C(=O)OC (stereo partly specified)	151 to 153
CC(c1ccc(-c2ccc(OCc3nc4ccccc4s3)cc2)c(F)c1)N(O)C(N)=O (stereo unspecified)	185 to 186

SMILES	melting point [°C]
CCOC(=O)c1cn(-c2nc3ccccc3s2)cn1	131 to 133
CC(C)CCCC(C)C1CCC2C3CC4(OCCO4)C4CC(O)CCC4(C)C3CCC12C (stereo unspecified)	114 to 115
Cn1cc(C#N)nc1-c1ncc[nH]1	238 to 239
Cc1oc(-c2ccccc2)nc1Cc1cc2cc(/C=C/CO)ccc2o1	156 to 157
COC(C)=NS(=O)(=O)c1nc(-c2ccc(O)cc2)ns1	190 to 192
CC(=O)Nc1c(I)c(C(=O)NC(CO)CO)c(I)c(C(=O)NC(CO)CO)c1I	> 270
O=C(O)c1cccc(Oc2ccc(C(F)(F)F)cn2)c1	146
CCC(=O)c1cnc2c(O)cccc2c1Nc1ccc(F)cc1C	143 to 146
CC(C)c1ccc(COc2ccc(CC(=O)O)cc2Cl)cc1	146 to 148
CCC(CC)n1nnc2c(Cl)nc(C)cc21	78 to 79
ClCCCc1ccc(OCc2ccccc2)cc1	34 to 35
CCOC(=O)C1(C(=O)OCC)CCC=C2C1CCC1=Cc3c(cnn3-c3ccc(F)cc3)CC12C (stereo unspecified)	133 to 135
CCNS(=O)(=O)c1cccc(NC(=O)c2cnn3c(C(F)(F)F)cc(-c4ccc(C(F)(F)F)c(OCC)c4)nc23)c1	226
CC#Cc1c(C#N)nn(-c2c(Cl)cc(C(F)(F)F)cc2Cl)c1N	226 to 228
CC(=O)c1ccc(-c2ccccc2NC(=N)N(C)C)cc1	174 to 175
CC1=C(C(=O)OCc2ccccc2)C(c2cccc([N+](=O)[O-])c2)c2c(ccnc2OC(C)C)N1 (stereo unspecified)	158 to 160
Cc1cccc(C)c1CNc1cc(Br)cc2c1nc(N(C)C)n2C	157 to 158
CCCCOC(=O)NS(=O)(=O)CCc1c(C)nn(C)c1-n1ccc2cc(C(F)(F)F)cnc21	122 to 123
CNS(=O)(=O)Oc1ccc2c(c1)C(C)(C)C(OC)O2 (stereo unspecified)	89 to 91
CC(=O)C(=O)Nc1ccc(-c2ccc(C(=O)O)c(=O)[nH]2)cc1	> 280
C=CS(=O)(=O)NCCCc1ccc(C2=NNC(=O)CC2)cc1	133 to 135
CC(C)(C)OC(=O)Nc1ccc(C#Cc2ccccc2F)cc1[N+](=O)[O-]	140 to 142
CNC(=O)Nc1snc(OC(C)C)c1C#N	238
CSc1c(C(=O)NN=Cc2nccs2)[nH]c2ccccc12	216 to 222

SMILES	melting point [°C]
COc1ccc(C(=O)C2C(=O)c3cccc(NC(=O)Oc4ccccc4)c3C2=O)cc1 (stereo unspecified)	256 to 258
O=C1CCCc2c1ccc(OCc1ccccc1)c2Cl	99 to 100
O=C(NCC12CC3CC(CC(C3)C1)C2)c1cc(I)ccc1Cl	161 to 162
CC(C)n1cccc1C(N)=S	97.5 to 100
CC(C(=O)O)c1ccc(-c2cn3cccnc3n2)cc1 (stereo unspecified)	248
O=C(CC(=O)Nc1ccccc1Cl)CS(=O)(=O)C(c1ccc(Cl)cc1)c1ccc(Cl)cc1	92 to 95
O=C1c2ccccc2C(=O)c2c1cccc2N1CCC(O)CC1	145
C=CCOc1ccccc1OCC(O)CNC1CCC(NC(=O)NCC)CC1 (stereo unspecified)	159 to 160
CCc1noc(C(=NOC)c2ccccc2COc2cc(C)ccc2C)n1	112
CCc1cccc2c1C(=O)N1CCC[C@H]1c1c(C(=O)OC(C)(C)C)ncn1-2	155 to 156
Fc1cccc(-c2sc(-c3ccccc3)cc2-c2ccccc2)c1	118 to 119
COc1cccc(S(=O)(=O)n2c(COC(C)(C)C(=O)O)cc3nc(Cl)ccc32)c1	130
CN1CCN(c2cc3ccccc3c(=O)[nH]2)CC1CO (stereo unspecified)	173 to 174
FC(F)(F)c1ccc(-c2cnn(-c3cccnc3)c2)cn1	203 to 204
CC(C)(C)c1cc(CSP(=S)(C2CCCCC2)C2CCCCC2)cc(C(C)(C)C)c1O	129 to 131
OC1(c2ccccc2)Cc2ccccc2C1	54
CC(=O)OC1C(N2CCCCC2)CC2C3CCC4CC(O)C(N5CCOCC5)CC4(C)C3CCC21C (stereo unspecified)	177 to 184
Cc1noc(C)c1-c1ccc(F)cc1OC1SCC(O)C(O)C1O (stereo unspecified)	192
CC(C)NC(=O)CS(=O)CC(=O)c1ccc(-c2ccccc2)cc1 (stereo unspecified)	138
COc1cc(C#CC(=O)NCCCNC(=O)C#Cc2cc(OC)c(OC)c(OC)c2)cc(OC)c1OC	158 to 160
Nc1ncc2cc(-c3c(Cl)cccc3Br)c(N)nc2n1	264 to 280
O=S(=O)(c1ccccc1)c1ccc2cnc(Nc3ccc(N4CCOCC4)cc3)nn12	110 to 115
COc1ccc(CN/C=C2\C(=O)NC(=O)c3cccc(Br)c32)cc1O	204 to 206
